# Measurements: patent US20160038519A1, “ADMINISTRATION OF KARENITECIN FOR THE TREATMENT OF ADVANCED OVARIAN CANCER, INCLUDING CHEMOTHERAPY-RESISTANT AND/OR THE MUCINOUS ADENOCARCINOMA SUB-TYPES” (BioNumerik Pharmaceuticals, Inc., priority 2014, published 2016)
# Like-named read-outs stand apart in the source and are kept apart here.
# How the values were obtained:
# [1] = Limit of solubility in cell culture medium; format: physicochemical; conditions: aqueous buffer
# Description: The 1050 values exceeded the solubility in medium for each compound—the limit of solubility in cell culture medium for the compounds were as follows: 2 micromolar for BNP1350 and SN38, and 20 micromolar for Topotecan. Cells were treated for periods of 2.5 hours or 6 hours and, in each case, the […] values were not reached. Longer treatments were not performed.
# OMC3 Cell Line = test: SRB cytotoxicity assay, OMC3; format: cell-based, human; conditions: Homo sapiens
# Description: (§1) In vitro studies were conducted in human mucinous ovarian cancer cell lines including JHOM2B, OMC3, and COV644. In one series of experiments, the dose response curves for BNP1350 (also known as Karenitecin), SN-38 (Irinotecan), and Topotecan were obtained and IC50 values were determined. In a second series of experiments, the effect of BNP7787 (2,2′-dithio-bis-ethane sulfonate; Tavocept) on BNP1350-induced cytotoxicity at selected BNP1350 concentrations was examined.
# (§2) The JHOM2B and OMC3 cell lines were purchased from Riken Cell Bank (Japan). The COV644 cell line was purchased from SigmaAldrich. Cells were maintained as monolayered cultures in T-75 flasks and then seeded to microtiter plate wells for experiments. Population doubling-times for these three cell lines were long (i.e., exceeding 40 hours, and for some of the cell lines approaching 96 hours); therefore, the Applicants conducted initial pilot experiments and determined optimal seeding density to obtain A570 values in untreated controls that would fall within the linear range of the SRB assay after seven (7) total days of cell growth. JHOM2B cells were cultured in DMEM:F12 (1:1)+0.1 mM non-essential amino acids (NEAA)+10% FBS and were seeded at 6,000 cells per well. OMC3 cells were cultured in HamF12+10% FBS and were seeded at 8,000 cells per well. COV644 cells were cultured in DMEM+2 mM glutamine+10% FBS and were seeded at 6,000 cells per well.
# (§3) The cells were manipulated in a Microzone laminar flow hood traditionally used for maintaining aseptic environments around automated instrumentation such as microplate robots, and the like. Cells were grown and maintained at 37° C. in a humidified atmosphere containing 5% CO2 in a water jacketed cell culture incubator (Forma Scientific). Cells were counted using a ViCell counter (Beckman-Coulter). An automated plate washer/stacker (ELx405/BioStak from BioTek Instruments) and a microplate reader (SpectraMax Plus from Molecular Devices) were used for conducting the SRB assay and determining A570 values for wells in the plates and the percentage of control values. Prior to SRB assays, cell viability was monitored by evaluation of microtiter plate wells. Dead cells detach and float while living cells remain attached to the bottom of the cell well.
# SN-38 (Irinotecan; Sigma H0165, lot MKBQ4981) and Topotecan (Sigma T2705, lot 052M4728V) were purchased from SigmaAldrich. BNP1350 (lot KN-C192-135) and BNP7787 (lot 205001) were synthesized at BioNumerik Pharmaceuticals, Inc. (San Antonio, Tex.). BNP1350, SN38, and Topotecan were prepared as 2.5, 2.5, and 25 mM stocks in DMSO (ATCC, cell culture grade).
# The sulforhodamine B (SRB) cytotoxicity assay was used to assess cell survival. Briefly, after the medium was decanted from individual plate wells, trichloroacetic acid (100 μL of 10.0 percent solution) was added to each well, and the plates were incubated at 4° C. for 1 hour. The plates were washed five times with water using an automated microplate washer (Model ELx405, Bio-Tek Instruments), SRB solution (100 μL of 0.4% SRB dissolved in 1.0 percent acetic acid) was added, and plates remained at room temperature for 15 minutes. The plates were then washed five times using acetic acid (1.0 percent), air dried, and bound dye was solubilized in Tris base (150 μL, 10 mM). Plates were agitated (gently) for 5 minutes and the absorbance values of the SRB dye-protein adduct at 570 nanometers (A570) were determined using an automated microtiter plate reader (SpectraMax Plus, Molecular Devices). IC50 values were extrapolated from dose response curves of the data using OriginLab Software.
# [2] = target: T1, Breast Cancer Resistance Protein (BCRP) (Homo sapiens, UniProt Q9UNQ0); conditions: cited from earlier work
# T1 sequence (Q9UNQ0 1-655): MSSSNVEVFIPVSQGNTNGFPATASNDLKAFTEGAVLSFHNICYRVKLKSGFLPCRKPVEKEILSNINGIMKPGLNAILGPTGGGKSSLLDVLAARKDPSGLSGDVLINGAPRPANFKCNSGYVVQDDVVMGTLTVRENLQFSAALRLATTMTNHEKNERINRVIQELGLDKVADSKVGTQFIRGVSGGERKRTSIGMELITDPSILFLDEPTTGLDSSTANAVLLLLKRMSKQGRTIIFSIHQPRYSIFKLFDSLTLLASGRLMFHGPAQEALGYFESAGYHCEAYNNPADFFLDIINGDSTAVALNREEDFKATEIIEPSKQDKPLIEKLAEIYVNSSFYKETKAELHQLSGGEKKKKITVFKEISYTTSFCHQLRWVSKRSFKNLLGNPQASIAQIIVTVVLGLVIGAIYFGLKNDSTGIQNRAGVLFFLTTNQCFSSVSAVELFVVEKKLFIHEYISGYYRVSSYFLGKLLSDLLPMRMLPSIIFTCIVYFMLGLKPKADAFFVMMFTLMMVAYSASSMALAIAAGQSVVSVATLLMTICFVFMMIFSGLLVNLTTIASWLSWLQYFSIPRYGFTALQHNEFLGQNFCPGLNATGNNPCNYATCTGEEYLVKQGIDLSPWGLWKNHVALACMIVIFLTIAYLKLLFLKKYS
# [3] = tested on: mucinous cell lines (JHOM2B, OMC3, and COV644); test: SRB assay, joint statements for the mucinous cell lines incl. effect of BNP7787 on BNP1350-induced cytotoxicity; format: cell-based, human; conditions: each of JHOM2B, OMC3, COV644
# Description: as §1
# as §2, with “JHOM2B cells were cultured in DMEM:F12 (1:1)+0.1 mM non-essential amino acids (NEAA)+10% FBS and were seeded at 6,000 cells per well. OMC3 cells were cultured in HamF12+10% FBS and were seeded at 8,000 cells per well. COV644 cells were cultured in DMEM+2 mM glutamine+10% FBS and were seeded at 6,000 cells per well.” left out
# as §3, with “Cells were grown and maintained at 37° C. in a humidified atmosphere containing 5% CO2 in a water jacketed cell culture incubator (Forma Scientific).” left out, “Dead cells detach and float while living cells remain attached to the bottom of the cell well.” left out
# The sulforhodamine B (SRB) cytotoxicity assay was used to assess cell survival. […] Plates were agitated (gently) for 5 minutes and the absorbance values of the SRB dye-protein adduct at 570 nanometers (A570) were determined using an automated microtiter plate reader (SpectraMax Plus, Molecular Devices). […]
# solid tumors = conditions: for Time on trial with no evidence of progressive disease: oral
# Description: A Phase I clinical trial (the “Oral Karenitecin Phase I Trial”) was performed to determine the maximum tolerated dose (MTD) of oral Karenitecin in subjects with solid tumors given in a dose-escalated manner (starting at 0.5 mg/m^2) and administered 3-times per week (MWF or TTS) for 3 consecutive weeks followed by a one-week treatment rest.
# In Stage I, subjects received Karenitecin as a single oral dose 3 times per week for 3 consecutive weeks followed by a one-week treatment rest. In Stage 1, some of subjects underwent pharmacokinetic sampling, and first received a single i.v. dose of Karenitecin (at the appropriate dosage level) followed by oral Karenitecin 4 to 7 days following the i.v. dose on a MWF or TTS schedule. Patients then received oral Karenitecin for all subsequent treatments.
# In Stage 2, Karenitecin was administered in a dose-escalated manner to approximately 16 subjects with solid tumors in order to determine the maximum tolerated dose (MTD). The initial dose escalation involved cohorts of one new subject per dose level. The starting dose was 0.5 mg/m^2 and dose escalation proceeded in 0.5 mg/m^2 increments. One-subject cohorts were utilized until the occurrence of a dose-limiting toxicity (DLT) or NCI CTCAE≧grade 2 toxicity was observed during the DLT observation period. Patients in Stage 2 received oral Karenitecin at the appropriate dose level on a MTWTF schedule for three (3) consecutive weeks, followed by a one-week rest period.
# [4] = Toxicology study of single daily doses given orally and intravenously for five consecutive days; format: in vivo; conditions: oral and i.v. single daily doses
# [5] = Preclinical toxicology, oral single daily doses for five consecutive days, beagle dogs; conditions: beagle, dog, in vivo, po
# beagle dogs = test: as above; conditions: oral vs i.v.
smiles,measurement,setting,value
"CC[C@@]1(O)C(=O)OCc2c1cc1n(c2=O)Cc2c-1nc1ccccc1c2CC[Si](C)(C)C [Karenitecin, (4S)-4-ethyl-4-hydroxy-11-[2-(trimethylsilyl)ethyl]-1H-pyrano[3′:4′:6,7]indolizino[1,2-b]quinoline-3,14(4H,12H)-dione]",solubility,[1],2 µM
same,IC50,"OMC3 Cell Line; 2 hour drug exposure, average of Test 1 and Test 2, read-out: IC50, Average",49.5 nM
same,IC50,"OMC3 Cell Line; 2 hour drug exposure, read-out: IC50, Test 1 (2 replicate plates)",57 ± 4 nM
same,IC50,"OMC3 Cell Line; 2 hour drug exposure, read-out: IC50, Test 2 (3 replicate plates)",42 ± 6 nM
same,IC50,OMC3 Cell Line; read-out: IC50 values,49.5 nM
same,"Sensitivity to tumor-mediated drug resistance mechanisms, including BCRP",[2],insensitive
same,Potency compared with SN38 and topotecan (dose response curves),[3],much more potent
same,Tolerability of oral administration,"solid tumors; in vivo, po",generally well-tolerated
same,Time on trial with no evidence of progressive disease,solid tumors; a patient with advanced ovarian cancer,approximately 16 months
same,Time on trial with no evidence of progressive disease,solid tumors; a patient with breast cancer,approximately 19.5 months
same,Time on trial with no evidence of progressive disease,solid tumors; a patient with carcinoma of the parotid gland,approximately 12 months
same,Time on trial with no evidence of progressive disease,solid tumors; a patient with colorectal cancer,approximately 8 months
same,Time on trial with no evidence of progressive disease,solid tumors; a patient with leiomyosarcoma,approximately 7 months
same,Time on trial with no evidence of progressive disease,solid tumors; a patient with melanoma,approximately 15 months
same,Time on trial with no evidence of progressive disease,solid tumors; a patient with neuroendocrine cancer,approximately 23 months
same,Time on trial with no evidence of progressive disease,solid tumors; a patient with non-small cell lung cancer,approximately 36 months
same,Time on trial with no evidence of progressive disease,solid tumors; a patient with pancreatic cancer,approximately 7 months
same,Time on trial with no evidence of progressive disease,solid tumors; a patient with peritoneal papillary adenocarcinoma cancer,approximately 8 months
same,Time on trial with no evidence of progressive disease,solid tumors; a patient with prostate cancer,approximately 7 months
same,Time on trial with no evidence of progressive disease,solid tumors; a patient with refractory small cell cancer,approximately 6 months
same,Time on trial with no evidence of progressive disease,solid tumors; a patient with sarcoma,approximately 9 months
same,Tolerability of oral doses,[4],good tolerability
same,MTD at 5 days,[5],0.075 mg/kg
same,MTD of oral relative to intravenous (i.v.) Karenitecin,beagle dogs,approximately 2 times
